Like-named read-outs stand apart in the source and are kept apart here.
How the values were obtained:
mu-opioid receptor (MOR) = target: T1, mu-opioid receptor (MOR) (Rattus norvegicus, UniProt P33535); assay: MOR radioligand competition binding assay ([3H]-DAMGO); settings: Mu screening results
T1 construct: Rat cortices were homogenized using 50 mM Tris, pH 7.4, and centrifuged at 16,500 rpm for 10 min; from tissue; host or cells: rat cortex membranes
Method: MOR binding assay: Rat cortices were homogenized using 50 mM Tris, pH 7.4, and centrifuged at 16,500 rpm for 10 min. The pellets were resuspended in fresh buffer and incubated at 37 °C for 30 min. Following incubation, the suspensions were centrifuged as before, the resulting pellets were resuspended in 100 volumes of 50 mM Tris, pH 7.4 plus 2 mg/mL bovine serum and the suspensions combined. Each assay tube contained 0.5 mL of membrane suspension, 2 nM [^3H]-DAMGO, and 0.02 mg/mL mixture in a total volume of 0.65 mL [13, 45, 53, 55].
(§1) All three binding assays were terminated by filtration through GF/B filters, soaked in 5 mg/mL bovine serum albumin, 50 mM Tris, pH 7.4, on a Tomtec Mach II Harvester 96. The filters were subsequently washed with 6 mL of assay buffer. Bound radioactivity was counted on a Wallac Betaplate Liquid Scintillation Counter. Experiments were conducted using two replicates and repeated twice. Values in Scheme 2 represent the mean ± SD of two experiments with two replicates in each test.

[1] = target: T2, kappa-opioid receptor (KOR) (Cavia porcellus, UniProt P41144); assay: KOR radioligand competition binding assay ([3H]U69,593); parameters: species or system guinea pig; settings: Kappa screening results
T2 construct: Guinea pig cortices and cerebella were homogenized using 50 mM Tris, pH 7.4; from tissue; host or cells: guinea pig cortex and cerebellum membranes
Method: KOR binding assay: Guinea pig cortices and cerebella were homogenized using 50 mM Tris, pH 7.4, 10 mM MgCl2-6H2O, […] centrifuged and incubated as above. Each assay tube contained 2 nM [^3H]U69,593. Assay tubes were incubated for 2 h at 25 °C. Unlabeled U50,488 was used as a competitor to generate a standard curve and determine nonspecific binding.
as §1

[2] = target: T3, delta-opioid receptor (DOR) (Rattus norvegicus, UniProt P33533); assay: DOR radioligand competition binding assay ([3H]-DPDPE); settings: Delta screening results
T3 construct: Rat cortices were homogenized using 50 mM Tris, pH 7.4, 10 mM MgCl2-6H2O, 200 µM PMSF; from tissue; host or cells: rat cortex membranes
Method: DOR binding assay: Rat cortices were homogenized using 50 mM Tris, pH 7.4, 10 mM MgCl2-6H2O, 200 µM PMSF, centrifuged and incubated as above. Each assay tube contained 2 nM [^3H]-DPDPE. Assay tubes were incubated for 2.5 h at 25 °C. Unlabeled DPDPE was used as a competitor to generate a standard curve and determine nonspecific binding.
as §1

[3] = experiment 1, unit inferred, read-out: Ki (Exp 1)
[4] = experiment 2, unit inferred, read-out: Ki (Exp 2)
[5] = mean of Exp 1 and Exp 2, unit inferred, read-out: MEAN (Ki)
[6] = mean of two experiments, read-out: Ki
[7] = first Ki column, unit not printed (apparently M), read-out: Ki (first column)
[8] = mean of both Ki, unit inferred, read-out: MEAN (Ki)
[9] = second Ki column, unit not printed (apparently M), read-out: Ki (second column)

Row | SMILES | Ki (mu-opioid receptor (MOR); [3]) | Ki (mu-opioid receptor (MOR); [4]) | Ki (mu-opioid receptor (MOR); [5]) | Ki (mu-opioid receptor (MOR); [6]) | Ki [1, 3] | Ki [1, 4] | Ki [1, 5] | Ki [1, 6] | Ki [2, 7] | Ki [2, 8] | Ki [2, 6] | Ki [2, 9]
1 | C[C@H]1CNC(=N)N1C[C@H](Cc1ccc(O)cc1)N1C[C@H](Cc2ccc(O)cc2)NC1=N [1968-38] | 174 nM | 195 nM | 184 nM | 184 nM | 1690 nM | 1960 nM | 1820 nM | 1820 nM | 4270 nM | 3800 nM | 3800 nM | 3330 nM
2 | CC(C)C[C@H]1CN([C@@H](Cc2ccc(O)cc2)CN2C(=N)NC[C@@H]2C)C(=N)N1 [1968-39] | 1240 nM | 1770 nM | 1500 nM | 1500 nM | 4090 nM | 7720 nM | 5900 nM | 5900 nM | 4150 nM | 3830 nM | 3830 nM | 3510 nM
3 | Cc1cc(O)cc(C)c1C[C@H]1CN([C@@H](Cc2ccc(O)cc2)CN2C(=N)NC[C@@H]2C)C(=N)N1 [1968-40] | 36.4 nM | 48.8 nM | 42.6 nM | 43 nM | 235 nM | 263 nM | 249 nM | 249 nM | 1520 nM | 1420 nM | 1420 nM | 1320 nM
4 | CC(C)C[C@@H](CN1C(=N)NC[C@@H]1C)N1C[C@H](Cc2ccccc2)NC1=N [1968-41] | 5620 nM | 7390 nM | 6510 nM | 6510 nM | 23900 nM | 22000 nM | 23000 nM | 23000 nM | 7310 nM |  |  | 
5 | CC(C)C[C@@H](CN1C(=N)NC[C@@H]1C)N1C[C@H](Cc2ccc(O)cc2)NC1=N [1968-42] | 2130 nM | 2470 nM | 2300 nM | 2300 nM | 12300 nM | 12300 nM | 12300 nM | 12300 nM | 20600 nM | 55700 nM | 55700 nM | 90800 nM
6 | CC(C)C[C@H]1CN([C@@H](CC(C)C)CN2C(=N)NC[C@@H]2C)C(=N)N1 [1968-43] | 7810 nM | 10700 nM | 9260 nM | 9260 nM | 36000 nM | 53000 nM | 44500 nM | 44500 nM | 9250 nM | 7970 nM | 7970 nM | 6690 nM
7 | Cc1cc(O)cc(C)c1C[C@H]1CN([C@@H](CC(C)C)CN2C(=N)NC[C@@H]2C)C(=N)N1 [1968-44] | 157 nM | 244 nM | 200 nM | 200 nM | 1830 nM | 1420 nM | 1630 nM | 1630 nM | 10200 nM | 7630 nM | 7630 nM | 5060 nM
8 | Cc1cc(O)cc(C)c1C[C@H]1CNC(=N)N1C[C@H](Cc1ccccc1)N1C[C@H](Cc2ccccc2)NC1=N [1968-49] | 53.4 nM | 84.7 nM | 69.1 nM | 69 nM | 1230 nM | 1210 nM | 1220 nM | 1220 nM | 615 nM | 543 nM | 543 nM | 472 nM
9 | Cc1cc(O)cc(C)c1C[C@H]1CNC(=N)N1C[C@H](Cc1ccccc1)N1C[C@H](Cc2ccc(O)cc2)NC1=N [1968-50] | 61.6 nM | 114 nM | 87.8 nM | 88 nM | 1900 nM | 1740 nM | 1820 nM | 1820 nM | 1100 nM | 896 nM | 896 nM | 690 nM
10 | Cc1cc(O)cc(C)c1C[C@H]1CNC(=N)N1C[C@H](Cc1ccccc1)N1C[C@H](CC(C)C)NC1=N [1968-51] | 126 nM | 162 nM | 144 nM | 144 nM | 872 nM | 639 nM | 755 nM | 755 nM | 2580 nM | 2550 nM | 2560 nM | 2530 nM
11 | Cc1cc(O)cc(C)c1C[C@H]1CN([C@@H](Cc2ccccc2)CN2C(=N)NC[C@@H]2Cc2c(C)cc(O)cc2C)C(=N)N1 [1968-52] | 83.4 nM | 102 nM | 92.8 nM | 93 nM | 1200 nM | 1240 nM | 1220 nM | 1220 nM | 582 nM | 551 nM | 551 nM | 521 nM
12 | Cc1cc(O)cc(C)c1C[C@H]1CNC(=N)N1C[C@H](Cc1ccc(O)cc1)N1C[C@H](Cc2ccc(O)cc2)NC1=N [1968-54] | 72.3 nM | 56.4 nM | 64.3 nM | 64 nM | 1460 nM | 1600 nM | 1530 nM | 1530 nM | 3550 nM | 3280 nM | 3280 nM | 3010 nM
13 | Cc1cc(O)cc(C)c1C[C@H]1CN([C@@H](Cc2ccc(O)cc2)CN2C(=N)NC[C@@H]2Cc2c(C)cc(O)cc2C)C(=N)N1 [1968-56] | 55 nM | 69.9 nM | 62.5 nM | 62 nM | 736 nM | 1250 nM | 991 nM | 991 nM | 1330 nM | 1300 nM | 1300 nM | 1260 nM
14 | Cc1cc(O)cc(C)c1C[C@H]1CNC(=N)N1C[C@H](CC(C)C)N1C[C@H](Cc2ccccc2)NC1=N [1968-57] | 59.6 nM | 74.1 nM | 66.8 nM | 67 nM | 371 nM | 679 nM | 525 nM | 525 nM | 1400 nM | 1240 nM | 1240 nM | 1070 nM
